Article PMC4336331, “Novel Receptor-Derived Cyclopeptides to Treat Heart Failure Caused by Anti-β1-Adrenoceptor Antibodies in a Human-Analogous Rat Model” (PLoS ONE, 2015)
Peptide text beside a SMILES is read from it.

How the values were obtained:
[1] = test system: anti-β1EC2-secreting cells; assay: ELISPOT of splenocytes and bone marrow cells; assay type: in vivo, Lewis/CrlBR rats
Method: (b) For ELISPOT assays plates were coated overnight with either 1.8 μg/ml anti-rat IgG (H+L) or the specific antigens (GST/β1EC2-FP or GST alone) in 50 mM Tris-buffer, pH 9.4. The plates were then washed 3 times, blocked with BSA (3h, 37°C), and incubated overnight at 37°C with splenocytes or bone marrow cells from rats treated as indicated in RPMI 1640/X-VIVO-15 medium supplemented with 10% FCS (1x10^3 to 10^6 cells per well). After 12 h the cells were discarded and the plates were washed several times (PBS/0.5% Tween) before an alkaline phosphatase-conjugated secondary anti-rat-IgG antibody (0.3 μg/ml) was added to detect bound rat IgG. After further incubation (3h, 37°C) and washing-steps (3 times PBS/0.5% Tween) the plates were developed using LMP/BCIP 5:1 (1.0 ml per well; LMP, low melting agarose; BCIP, 5-bromo-4-chloro-3-indolyl phosphate p-toluidine salt, a blue-colored dye).
Fig 5 Immunology of cyclic β1EC2-peptides: fate of β1EC2-specific T- and B-cells. (A) Titer-course of anti-β1EC2-abs in β1EC2-CP-treated rats during the first 6 months of the prevention-study before and 24h after cyclopeptide-injection. Time-points of antigen-boosts are indicated by (red) lines, time-points of CP-injections by (green) arrows. For better readability error-bars are not shown in the graph. (B) Pre-experiments (antigenic recall-assays) performed with CD4^+ T-cells prepared from spleens of GST/β1EC2 fusion-protein (FP)-immunised untreated (n = 3, black) vs. 0.9%NaCl-injected control rats (n = 3, white). (C and D) Reactivities of CD4^+ T-cells prepared from (C) preventively or (D) therapeutically β1EC2-CP- (green) or bisoprolol-treated animals (blue) compared to cells prepared from immunised untreated (black) or corresponding 0.9%NaCl-injected control rats (white). Columns ± error bars represent mean T-cell reactivities ±SEM normalized to medium (abbreviations: EC2-CP, cyclopeptide mimicking β1EC2; GST, glutathion-S-transferase; PPD, purified protein derivative; FP, GST/β1EC2 fusion-protein). […]

[2] = test system: anti-β1EC2-induced heart failure (β1EC2/GST-FP-immunised rats); assay: Echocardiography, catheterisation and histomorphology, prevention-study; assay type: in vivo, Lewis/CrlBR rats; settings: cardiac catheterisation, histomorphology
Method: In brief, n = 76 two months old Lewis/CrlBR rats were either s.c. immunised with 50 μg β1EC2/GST-FP, or n = 38 rats were control-injected with 0.9% NaCl (t = 0). To maintain high anti-β1EC2-titers, all immunised rats were boosted with β1EC2/GST-FP (or 0.9% NaCl) every month over 20 months as previously described. Application of the different linear or cyclic β1-AR peptides (corresponding to the primary AA-sequence of either the first (β1EC1) or the 2nd extra-cellular β1-AR loop (β1EC2)) or the β1-receptor blocker bisoprolol was initiated either 6 weeks after the 1st immunisation (i.e. 15 days after the 1st boost, prevention-study), or 8.5 months after the 1st immunisation (therapy-study).
In brief, the rats were lightly anaestetised (30 mg/kg ketamine-HCl and 5 mg/kg xylazine i.p.), shaved (chest), and placed supine on a special table. M-mode tracings were recorded at baseline (before immunisation), and subsequently every four months in the parasternal long and short axis views according to the guidelines of the American Society for Echocardiography. Pulsed-wave Doppler spectra were recorded from the apical five-chamber view and the velocity-time integral (VTI) of the transaortic flow served to calculate cardiac output (CO [ml/min] = Aortic VTI x (π [LV-outflow tract diameter/2]^2) x bpm).

Q: With `CC(C)[C@H](NC(=O)[C@H](Cc1ccccc1)NC(=O)[C@H](CC(=O)O)NC(=O)[C@H](CS)NC(=O)[C@H](CS)NC(=O)[C@H](CCCCN)NC(=O)[C@@H]1CCCN1C(=O)[C@H](CC(=O)O)NC(=O)[C@H](CC(N)=O)NC(=O)[C@H](Cc1ccc(O)cc1)NC(=O)[C@H](CS)NC(=O)[C@H](CCCNC(=N)N)NC(=O)[C@H](CCCNC(=N)N)NC(=O)[C@H](C)NC(=O)[C@H](CCC(=O)O)NC(=O)[C@H](CC(=O)O)NC(=O)[C@H](CO)NC(=O)[C@H](CCC(=O)O)NC(=O)[C@H](C)NC(=O)[C@H](CCCNC(=N)N)NC(=O)[C@H](C)N)C(=O)N[C@H](C(=O)N[C@@H](CC(N)=O)C(=O)N[C@@H](CCCNC(=N)N)C(=O)NCC(N)=O)[C@@H](C)O` [β1EC2-Lin] (H-ARAESDEARRCYNDPKCCDFVTNRG-NH2; N-terminus and C-terminus assumed) as the compound, how does the “reduction in the frequencies of splenocytes secreting anti-β1EC2-abs, in words” value ([1]; ELISPOT 3 days after antigen-boost (S5A Fig.)) read?
A: not achieved

Q: Which “overall numbers of IgG-producing cells, in words” value ([1]; ELISPOT (Fig. 5F, H, and J)) does the source give for `CC(C)[C@@H]1NC(=O)[C@H](Cc2ccccc2)NC(=O)[C@H](CC(=O)O)NC(=O)[C@H](CS)NC(=O)[C@H](CS)NC(=O)[C@H](CCCCN)NC(=O)[C@@H]2CCCN2C(=O)[C@H](CC(=O)O)NC(=O)[C@H](CC(N)=O)NC(=O)[C@H](Cc2ccc(O)cc2)NC(=O)[C@H](CS)NC(=O)[C@H](CCCNC(=N)N)NC(=O)[C@H](CCCNC(=N)N)NC(=O)[C@H](C)NC(=O)[C@H](CCC(=O)O)NC(=O)[C@H](CC(=O)O)NC(=O)[C@H](CO)NC(=O)[C@H](CCC(=O)O)NC(=O)[C@H](C)NC(=O)[C@H](CCCNC(=N)N)NC(=O)[C@H](C)NC(=O)[C@H](CCC(N)=O)NC(=O)CNC(=O)[C@H](CCCNC(=N)N)NC(=O)[C@H](CC(N)=O)NC(=O)[C@H]([C@@H](C)O)NC1=O` [β1EC2-CP] (cyclo(AESDEARRCYNDPKCCDFVTNRGQAR)) here?
A: not at all affected

Q: What about the “frequencies of anti-β1EC2-producing (long-lived) PC, in words” value ([1]; ELISPOT, splenocytes or bone marrow cells two weeks after the last antigen-boost (Fig. 5E and F)) of the same compound?
A: did not reduce

Q: And the “development of cardiomyopathy and heart failure, in words” value [2]?
A: able to prevent development of cardiomyopathy and heart failure

Q: Which “development of cardiomyopathy and heart failure, in words” value [2] does the source give for `CC(C)NCC(O)COc1ccc(COCCOC(C)C)cc1` (centres unmarked) [bisoprolol, reference compound] here?
A: able to prevent development of cardiomyopathy and heart failure
